Experimental data as given in PubChem BioAssay (NCI).
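Exposure lasted 48 hours, with cells grown in 96-well plates and compounds tested at five concentrations. The concentration for 50% growth inhibition is given as GI50. TGI is the concentration that stops growth completely.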

Columns and labels:
Test in all cases: DTP human tumour cell line panel, 48 h
A549 NSCLC = system: A549 NSCLC
CCRF-CEM leukemia = system: CCRF-CEM leukemia
HCC-2998 colon = system: HCC-2998 colon
HT29 colon = system: HT29 colon
MDA-MB-231 breast = system: MDA-MB-231 breast
MOLT-4 leukemia = system: MOLT-4 leukemia
NCI-H226 lung = system: NCI-H226 lung
SK-MEL-28 melanoma = system: SK-MEL-28 melanoma
SK-OV-3 ovarian = system: SK-OV-3 ovarian
TK-10 renal = system: TK-10 renal

SMILES	GI50 (A549 NSCLC)	TGI (A549 NSCLC)	GI50 (CCRF-CEM leukemia)	TGI (CCRF-CEM leukemia)	GI50 (HCC-2998 colon)	TGI (HCC-2998 colon)	GI50 (HT29 colon)	TGI (HT29 colon)	GI50 (MDA-MB-231 breast)	TGI (MDA-MB-231 breast)	GI50 (MOLT-4 leukemia)	TGI (MOLT-4 leukemia)	GI50 (NCI-H226 lung)	TGI (NCI-H226 lung)	GI50 (SK-MEL-28 melanoma)	TGI (SK-MEL-28 melanoma)	GI50 (SK-OV-3 ovarian)	TGI (SK-OV-3 ovarian)	GI50 (TK-10 renal)	TGI (TK-10 renal)
CS(=O)(=O)CCCn1c(=O)c(Oc2ccc(F)cc2F)cc2cnc(NC3CCOCC3)nc21	> 25 µM	> 25 µM	> 25 µM	> 25 µM	> 25 µM	> 25 µM	> 25 µM	> 25 µM	> 25 µM	> 25 µM	> 25 µM	> 25 µM	> 25 µM	> 25 µM	> 25 µM	> 25 µM	> 25 µM	> 25 µM	> 25 µM	> 25 µM
COc1cc(C2c3cc4c(cc3C(O)C(CO)C2CO)OCO4)cc(OC)c1OC (stereo not drawn)	1.64 µM	> 100 µM	0.787 µM	> 100 µM	1.78 µM	> 100 µM	0.422 µM	–	3.69 µM	> 100 µM	1.59 µM	> 100 µM	7.47 µM	> 100 µM	1.6 µM	> 100 µM	1.57 µM	> 100 µM	> 23.2 µM	> 100 µM
COc1c(OC)c(OC)c(C(=O)/C=C/c2ccccc2)c(OC)c1OC	–	46.2 µM	–	18.1 µM	–	29.7 µM	–	15.1 µM	–	35.6 µM	–	36.3 µM	–	38.4 µM	–	27.3 µM	–	32.9 µM	–	26.4 µM
Cc1ccc(Cl)cc1Nc1nc(C(F)(F)F)ccc1C(=O)N1CCN(c2cccc(Cl)c2)CC1	> 100 µM	> 100 µM	> 100 µM	> 100 µM	17.8 µM	> 100 µM	> 100 µM	> 100 µM	30.5 µM	> 100 µM	–	> 100 µM	> 100 µM	> 100 µM	> 100 µM	> 100 µM	> 100 µM	> 100 µM	> 100 µM	> 100 µM
Cc1ccc(-c2nc3ccc([N+](=O)[O-])cc3[nH]2)cc1	–	> 100 µM	–	> 100 µM	–	> 100 µM	–	> 100 µM	–	> 100 µM	–	> 100 µM	–	> 100 µM	–	> 100 µM	–	> 100 µM	–	> 100 µM
Cc1ccc(/C=C/c2c(C(=O)/C=C/c3ccc(C(F)(F)F)cc3)c(C)nc3ccccc23)cc1	2.03 µM	4.76 µM	0.411 µM	> 100 µM	1.48 µM	2.81 µM	0.674 µM	4.57 µM	1.65 µM	3.43 µM	0.625 µM	> 100 µM	1.5 µM	3.03 µM	1.93 µM	3.63 µM	1.8 µM	3.6 µM	2.36 µM	3.9 µM
COC1C(O)=C2C(=O)O/C(C)=C/C=C/C=C/C=C\CC(c3ccccc3)NC(=O)\C=C/C=C\C=C\C=C\[C@@]2(C)[C@@H]1O (stereo partly drawn)	–	0.0445 µM	–	0.0577 µM	–	0.586 µM	–	0.0531 µM	–	0.0896 µM	–	0.177 µM	–	0.273 µM	–	0.0518 µM	–	0.188 µM	–	0.272 µM
CC(C)=CCc1cc(O)cc2c1OC(C=C(C)C)C1=C2C(=O)C2=C(NCCS2(=O)=O)C1=O (stereo not drawn)	3.17 µM	6.83 µM	4.05 µM	> 16.7 µM	2.63 µM	5.19 µM	1.95 µM	7.24 µM	0.527 µM	5.09 µM	2.23 µM	7.19 µM	2.06 µM	5.34 µM	2.39 µM	5.13 µM	3.8 µM	10.4 µM	5.51 µM	16.2 µM
Cc1nc2cnc(N)c(C#Cc3cncc(C(=O)Nc4ccc(CN5CCN(C)CC5)c(C(F)(F)F)c4)c3)c2nc1C	0.614 µM	5.71 µM	2.12 µM	16.7 µM	0.651 µM	13.1 µM	0.0456 µM	2.72 µM	0.209 µM	2.13 µM	0.859 µM	18.3 µM	0.188 µM	2.61 µM	0.166 µM	1.32 µM	1.63 µM	9.15 µM	0.496 µM	3.2 µM
